Results as given in ChEMBL document CHEMBL1129160, “Non thiazolidinedione antihyperglycaemic agents. 2: -Carbon substituted -phenylpropanoic acids1” (Bioorg Med Chem Lett, 1996).

How the values were obtained:
Mus musculus = assay: In vivo anti-hyperglycaemic activity in mice.; type: functional
[1] = biological target: T1, Peroxisome proliferator-activated receptor gamma (Homo sapiens, UniProt P37231); assay: Inhibition of [125I]SB 236636 binding to human PPAR gamma receptor
T1 sequence (P37231 whole entry): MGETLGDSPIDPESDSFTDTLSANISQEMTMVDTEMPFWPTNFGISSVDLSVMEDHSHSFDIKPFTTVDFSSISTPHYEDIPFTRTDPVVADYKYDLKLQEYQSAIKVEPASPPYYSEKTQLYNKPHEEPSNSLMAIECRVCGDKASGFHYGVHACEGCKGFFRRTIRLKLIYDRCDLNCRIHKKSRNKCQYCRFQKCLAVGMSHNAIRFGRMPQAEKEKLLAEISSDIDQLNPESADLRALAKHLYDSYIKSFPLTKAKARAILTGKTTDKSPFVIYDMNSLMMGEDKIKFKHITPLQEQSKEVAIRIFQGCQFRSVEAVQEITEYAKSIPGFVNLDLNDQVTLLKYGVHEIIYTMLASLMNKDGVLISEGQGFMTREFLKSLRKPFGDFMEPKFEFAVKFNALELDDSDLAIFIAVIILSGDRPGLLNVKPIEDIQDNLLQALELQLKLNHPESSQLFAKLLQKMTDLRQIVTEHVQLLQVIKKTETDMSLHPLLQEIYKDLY

[2] = biological target: T1, Peroxisome proliferator-activated receptor gamma

| Structure (SMILES) | ED25 (Mus musculus) | Ki [1] | Ki [2] |
| --- | --- | --- | --- |
| CN(CCOc1ccc(CC(CCCCCc2ccccc2)C(=O)O)cc1)c1nc2ccccc2o1 (centres undefined) | 3 µM/kg | – | – |
| CN(CCOc1ccc(CC2SC(=O)NC2=O)cc1)c1nc2ccccc2o1 (centres undefined) [BRL-48482] | 3 µM/kg | – | – |
| CN(CCOc1ccc(CC(C(=O)O)c2ccccc2)cc1)c1nc2ccccc2o1 (centres undefined) | 30 µM/kg | – | – |
| CN(CCOc1ccc(CC(CCOc2ccccc2)C(=O)O)cc1)c1nc2ccccc2o1 (centres undefined) | 30 µM/kg | – | – |
| CCC(Cc1ccc(OCCN(C)c2nc3ccccc3o2)cc1)C(=O)O (centres undefined) | 30 µM/kg | – | – |
| CCCCCCC(Cc1ccc(OCCN(C)c2nc3ccccc3o2)cc1)C(=O)O (centres undefined) | 10 µM/kg | – | – |
| CCOC(Cc1ccc(OCCN(C)c2nc3ccccc3o2)cc1)C(=O)O (centres undefined) | 0.1 µM/kg | – | – |
| CC(Cc1ccc(OCCN(C)c2nc3ccccc3o2)cc1)C(=O)O (centres undefined) | 1000 µM/kg | 1.5 µM | – |
| COCC(Cc1ccc(OCCN(C)c2nc3ccccc3o2)cc1)C(=O)O (centres undefined) | 30 µM/kg | – | – |
| CN(CCOc1ccc(CC(C#N)C(=O)O)cc1)c1nc2ccccc2o1 (centres undefined) | 10 µM/kg | – | – |
| COC(=O)C(CCc1ccccc1)Cc1ccc(OCCN(C)c2nc3ccccc3o2)cc1 (centres undefined) | 100 µM/kg | – | – |
| CN(CCOc1ccc(CC(CCCCc2ccccc2)C(=O)O)cc1)c1nc2ccccc2o1 (centres undefined) | 100 µM/kg | – | – |
| C=CCC(Cc1ccc(OCCN(C)c2nc3ccccc3o2)cc1)C(=O)O (centres undefined) | 30 µM/kg | – | – |
| COC(=O)C(Cc1ccccc1)Cc1ccc(OCCN(C)c2nc3ccccc3o2)cc1 (centres undefined) | 300 µM/kg | – | – |
| CC(C)CCC(Cc1ccc(OCCN(C)c2nc3ccccc3o2)cc1)C(=O)O (centres undefined) | 100 µM/kg | – | – |
| CN(CCOc1ccc(CC(C/C=C/c2ccccc2)C(=O)O)cc1)c1nc2ccccc2o1 (centres undefined) | 30 µM/kg | – | – |
| Cc1c(C)c2c(c(C)c1O)CCC(C)(COc1ccc(CC3SC(=O)NC3=O)cc1)O2 (centres undefined) [TROGLITAZONE] | 400 µM/kg | – | – |
| CN(CCOc1ccc(CC(CCCc2ccccc2)C(=O)O)cc1)c1nc2ccccc2o1 (centres undefined) | 3 µM/kg | – | 0.03 µM |
| COC(=O)C(Cc1ccc(OCCN(C)c2nc3ccccc3o2)cc1)C(C)=O (centres undefined) | 300 µM/kg | – | – |
| CCCC(Cc1ccc(OCCN(C)c2nc3ccccc3o2)cc1)C(=O)O (centres undefined) | 10 µM/kg | – | – |
| COC(=O)C(Cc1ccc(OCCN(C)c2nc3ccccc3o2)cc1)C(=O)OC | 10 µM/kg | – | – |
| CCOC(=O)C(Cc1ccc(OCCN(C)c2nc3ccccc3o2)cc1)C(=O)c1ccccc1 (centres undefined) | >1000 µM/kg | – | – |
